Legend:
[1] = system: Mast/stem cell growth factor receptor Kit (Homo sapiens), P10721 [D816V]; experiment: Inhibition of KIT D816V mutant (unknown origin) assessed as residual activity at 1000 nM by KINOMEscan analysis relative to control
[2] = target: T1, Cyclin-dependent kinase 11A (Homo sapiens) (UniProt Q9UQ88); experiment: Inhibition of CDC2L2 (unknown origin) assessed as residual activity at 1000 nM by KINOMEscan analysis relative to control
T1 sequence (whole entry): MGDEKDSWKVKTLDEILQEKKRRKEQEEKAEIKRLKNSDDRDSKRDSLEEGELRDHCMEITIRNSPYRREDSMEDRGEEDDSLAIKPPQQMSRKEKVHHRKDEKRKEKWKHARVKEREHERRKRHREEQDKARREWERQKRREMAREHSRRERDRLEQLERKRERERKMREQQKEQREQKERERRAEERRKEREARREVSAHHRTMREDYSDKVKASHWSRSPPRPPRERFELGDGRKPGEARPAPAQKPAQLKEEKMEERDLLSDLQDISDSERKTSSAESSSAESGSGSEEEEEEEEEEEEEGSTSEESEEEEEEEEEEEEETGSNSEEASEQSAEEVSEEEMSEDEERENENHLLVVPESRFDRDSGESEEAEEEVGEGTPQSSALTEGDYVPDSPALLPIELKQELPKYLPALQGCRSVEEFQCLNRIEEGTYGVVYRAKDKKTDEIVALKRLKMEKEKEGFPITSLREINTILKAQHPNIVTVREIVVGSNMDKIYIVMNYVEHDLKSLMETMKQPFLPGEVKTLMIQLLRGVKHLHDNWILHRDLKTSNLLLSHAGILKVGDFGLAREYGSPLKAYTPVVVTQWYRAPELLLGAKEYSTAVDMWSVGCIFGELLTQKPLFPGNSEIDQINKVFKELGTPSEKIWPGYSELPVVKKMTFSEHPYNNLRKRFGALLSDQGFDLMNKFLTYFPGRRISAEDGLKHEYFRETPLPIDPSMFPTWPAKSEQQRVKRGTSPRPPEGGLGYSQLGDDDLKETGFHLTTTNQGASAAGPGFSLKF

[3] = system: Tyrosine-protein kinase ABL1 (Homo sapiens), P00519 [F317I]; experiment: Inhibition of phosphorylated ABL1 F317I mutant (unknown origin) assessed as residual activity at 1000 nM by KINOMEscan analysis relative to control
[4] = system: Leucine-rich repeat serine/threonine-protein kinase 2 (Homo sapiens), Q5S007 [G2019S]; experiment: Inhibition of LRRK2 G2019S mutant (unknown origin) assessed as residual activity at 1000 nM by KINOMEscan analysis relative to control
Sequence of Leucine-rich repeat serine/threonine-protein kinase 2 (Homo sapiens), Q5S007 [G2019S] (Q5S007 whole entry G2019S): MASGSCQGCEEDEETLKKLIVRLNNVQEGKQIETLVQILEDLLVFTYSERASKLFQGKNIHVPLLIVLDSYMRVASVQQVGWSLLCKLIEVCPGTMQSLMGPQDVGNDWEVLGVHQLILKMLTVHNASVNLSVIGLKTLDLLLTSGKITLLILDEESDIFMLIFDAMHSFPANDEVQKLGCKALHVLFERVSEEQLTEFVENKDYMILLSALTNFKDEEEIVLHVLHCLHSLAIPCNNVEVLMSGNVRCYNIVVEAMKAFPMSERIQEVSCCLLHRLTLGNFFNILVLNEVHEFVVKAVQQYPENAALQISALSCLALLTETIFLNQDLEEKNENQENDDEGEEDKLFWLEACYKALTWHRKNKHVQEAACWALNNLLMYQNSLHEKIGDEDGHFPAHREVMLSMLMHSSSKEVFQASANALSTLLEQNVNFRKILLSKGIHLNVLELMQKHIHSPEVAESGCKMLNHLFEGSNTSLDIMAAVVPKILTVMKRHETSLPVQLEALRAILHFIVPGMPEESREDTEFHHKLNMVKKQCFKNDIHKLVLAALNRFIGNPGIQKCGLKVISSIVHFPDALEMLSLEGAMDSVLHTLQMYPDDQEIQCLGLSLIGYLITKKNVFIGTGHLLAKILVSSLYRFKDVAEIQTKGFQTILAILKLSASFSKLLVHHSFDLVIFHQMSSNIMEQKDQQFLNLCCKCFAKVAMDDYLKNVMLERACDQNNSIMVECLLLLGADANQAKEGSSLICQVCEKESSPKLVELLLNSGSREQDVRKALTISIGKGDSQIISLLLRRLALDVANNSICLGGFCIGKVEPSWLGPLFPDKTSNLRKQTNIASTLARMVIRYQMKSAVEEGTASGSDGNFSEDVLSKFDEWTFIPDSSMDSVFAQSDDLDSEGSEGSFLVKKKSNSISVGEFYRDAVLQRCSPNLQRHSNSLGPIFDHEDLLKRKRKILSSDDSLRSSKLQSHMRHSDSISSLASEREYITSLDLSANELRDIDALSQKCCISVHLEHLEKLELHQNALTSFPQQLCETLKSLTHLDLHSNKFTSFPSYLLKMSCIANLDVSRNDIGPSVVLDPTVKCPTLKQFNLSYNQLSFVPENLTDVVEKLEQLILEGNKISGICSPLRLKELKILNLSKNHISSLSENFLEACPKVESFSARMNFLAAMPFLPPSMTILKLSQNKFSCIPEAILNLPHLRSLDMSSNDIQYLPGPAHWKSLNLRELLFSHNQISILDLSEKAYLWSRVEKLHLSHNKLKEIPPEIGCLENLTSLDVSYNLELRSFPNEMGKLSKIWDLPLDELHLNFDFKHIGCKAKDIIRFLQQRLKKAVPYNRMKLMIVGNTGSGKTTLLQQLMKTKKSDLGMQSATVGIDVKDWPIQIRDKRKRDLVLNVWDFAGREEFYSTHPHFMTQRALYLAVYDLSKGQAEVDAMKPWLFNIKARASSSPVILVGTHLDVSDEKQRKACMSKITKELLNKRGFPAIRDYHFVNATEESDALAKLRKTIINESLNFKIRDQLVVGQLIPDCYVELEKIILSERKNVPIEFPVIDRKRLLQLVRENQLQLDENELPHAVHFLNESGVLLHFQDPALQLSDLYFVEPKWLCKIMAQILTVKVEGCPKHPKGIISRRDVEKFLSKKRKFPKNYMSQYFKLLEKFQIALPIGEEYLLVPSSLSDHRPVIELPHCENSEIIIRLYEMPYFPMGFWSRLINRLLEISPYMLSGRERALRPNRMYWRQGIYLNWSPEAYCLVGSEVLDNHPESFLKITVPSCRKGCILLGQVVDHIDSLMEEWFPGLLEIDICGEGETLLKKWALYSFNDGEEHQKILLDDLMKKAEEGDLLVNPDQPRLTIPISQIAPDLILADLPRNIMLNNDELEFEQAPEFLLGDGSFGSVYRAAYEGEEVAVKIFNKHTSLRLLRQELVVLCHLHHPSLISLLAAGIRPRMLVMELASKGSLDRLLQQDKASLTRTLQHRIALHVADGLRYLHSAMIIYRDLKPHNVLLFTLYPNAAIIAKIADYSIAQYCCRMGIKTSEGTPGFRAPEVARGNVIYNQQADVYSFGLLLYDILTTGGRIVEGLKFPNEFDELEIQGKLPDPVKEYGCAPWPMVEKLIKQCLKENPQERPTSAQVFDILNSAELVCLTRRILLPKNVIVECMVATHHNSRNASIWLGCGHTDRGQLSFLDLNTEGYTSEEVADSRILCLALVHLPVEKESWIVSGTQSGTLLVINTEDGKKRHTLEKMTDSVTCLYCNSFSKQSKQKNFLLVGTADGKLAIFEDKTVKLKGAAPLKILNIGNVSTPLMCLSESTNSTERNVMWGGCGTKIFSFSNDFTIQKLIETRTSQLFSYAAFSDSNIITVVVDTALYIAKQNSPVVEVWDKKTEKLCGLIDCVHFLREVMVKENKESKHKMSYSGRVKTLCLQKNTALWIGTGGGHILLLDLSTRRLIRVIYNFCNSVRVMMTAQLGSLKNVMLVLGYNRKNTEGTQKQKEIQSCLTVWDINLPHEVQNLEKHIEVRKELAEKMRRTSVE

[5] = target: Cyclin-dependent kinase 15 (Homo sapiens) (UniProt Q96Q40); experiment: Inhibition of PFTAIRE2 (unknown origin) assessed as residual activity at 1000 nM by KINOMEscan analysis relative to control
Sequence of Cyclin-dependent kinase 15 (Homo sapiens) (Q96Q40 whole entry, the tested form may be a part): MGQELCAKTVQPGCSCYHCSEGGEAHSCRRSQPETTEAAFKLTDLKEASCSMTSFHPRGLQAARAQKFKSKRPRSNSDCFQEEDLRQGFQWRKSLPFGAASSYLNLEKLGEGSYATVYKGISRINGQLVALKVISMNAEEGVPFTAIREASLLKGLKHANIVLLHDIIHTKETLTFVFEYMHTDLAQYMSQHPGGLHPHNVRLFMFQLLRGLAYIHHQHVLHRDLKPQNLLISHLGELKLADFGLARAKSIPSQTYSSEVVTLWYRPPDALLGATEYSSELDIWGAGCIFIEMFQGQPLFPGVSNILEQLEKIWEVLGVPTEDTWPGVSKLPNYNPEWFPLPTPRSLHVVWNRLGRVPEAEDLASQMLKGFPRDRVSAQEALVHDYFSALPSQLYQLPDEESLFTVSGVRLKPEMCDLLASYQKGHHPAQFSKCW

[6] = target: Ribosomal protein S6 kinase alpha-3 (Homo sapiens) (UniProt P51812); experiment: Inhibition of C-terminal RSK2 kinetic domain 2 (unknown origin) assessed as residual activity at 1000 nM by KINOMEscan analysis relative to control
Sequence of Ribosomal protein S6 kinase alpha-3 (Homo sapiens) (P51812 whole entry, the tested form may be a part): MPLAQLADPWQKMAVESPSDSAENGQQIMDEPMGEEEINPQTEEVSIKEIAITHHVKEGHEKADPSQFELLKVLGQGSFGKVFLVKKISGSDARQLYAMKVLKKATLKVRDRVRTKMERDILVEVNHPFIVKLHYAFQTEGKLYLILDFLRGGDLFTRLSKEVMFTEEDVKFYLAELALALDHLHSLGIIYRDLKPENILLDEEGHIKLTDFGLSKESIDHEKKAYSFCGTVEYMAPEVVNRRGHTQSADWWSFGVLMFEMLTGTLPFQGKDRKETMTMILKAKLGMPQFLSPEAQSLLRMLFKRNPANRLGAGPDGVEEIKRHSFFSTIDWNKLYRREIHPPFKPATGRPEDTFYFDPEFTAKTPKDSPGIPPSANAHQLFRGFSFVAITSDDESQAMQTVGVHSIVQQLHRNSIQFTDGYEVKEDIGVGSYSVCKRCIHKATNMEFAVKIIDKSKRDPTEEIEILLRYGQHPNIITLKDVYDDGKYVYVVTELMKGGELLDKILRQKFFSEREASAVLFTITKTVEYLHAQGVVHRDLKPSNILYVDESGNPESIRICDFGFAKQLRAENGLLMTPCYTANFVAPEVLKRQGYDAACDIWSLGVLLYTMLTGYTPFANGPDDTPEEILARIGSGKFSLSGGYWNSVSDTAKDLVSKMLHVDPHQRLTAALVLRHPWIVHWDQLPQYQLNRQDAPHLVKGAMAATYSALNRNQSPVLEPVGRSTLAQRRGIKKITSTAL

[7] = target: T2, Non-receptor tyrosine-protein kinase TNK1 (Homo sapiens) (UniProt Q13470); experiment: Inhibition of TNK1 (unknown origin) assessed as residual activity at 1000 nM by KINOMEscan analysis relative to control
T2 sequence (whole entry): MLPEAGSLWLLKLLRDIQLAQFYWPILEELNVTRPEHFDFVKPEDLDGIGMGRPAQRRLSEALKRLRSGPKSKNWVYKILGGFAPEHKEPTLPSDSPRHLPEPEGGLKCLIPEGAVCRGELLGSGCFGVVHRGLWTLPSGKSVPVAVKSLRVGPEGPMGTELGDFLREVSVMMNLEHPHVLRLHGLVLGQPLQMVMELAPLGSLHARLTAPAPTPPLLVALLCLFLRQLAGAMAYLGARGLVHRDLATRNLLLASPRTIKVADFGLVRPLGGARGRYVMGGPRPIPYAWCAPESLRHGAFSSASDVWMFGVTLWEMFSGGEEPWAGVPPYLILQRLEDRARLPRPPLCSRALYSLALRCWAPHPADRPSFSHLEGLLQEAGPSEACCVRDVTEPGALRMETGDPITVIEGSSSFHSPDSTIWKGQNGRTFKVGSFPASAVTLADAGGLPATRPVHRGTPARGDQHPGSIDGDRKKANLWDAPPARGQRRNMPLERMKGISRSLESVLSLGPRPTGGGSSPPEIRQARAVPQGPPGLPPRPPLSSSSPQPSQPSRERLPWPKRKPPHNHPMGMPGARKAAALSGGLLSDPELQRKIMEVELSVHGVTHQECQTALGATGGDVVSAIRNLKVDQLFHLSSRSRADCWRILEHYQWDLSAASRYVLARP

[8] = target: Eukaryotic translation initiation factor 2-alpha kinase 1 (Homo sapiens) (UniProt Q9BQI3); experiment: Inhibition of EIF2AK1 (unknown origin) assessed as residual activity at 1000 nM by KINOMEscan analysis relative to control
[9] = target: T3, cGMP-dependent protein kinase 1 (Homo sapiens) (UniProt Q13976); experiment: Inhibition of PRKG1 (unknown origin) assessed as residual activity at 1000 nM by KINOMEscan analysis relative to control
T3 sequence (whole entry): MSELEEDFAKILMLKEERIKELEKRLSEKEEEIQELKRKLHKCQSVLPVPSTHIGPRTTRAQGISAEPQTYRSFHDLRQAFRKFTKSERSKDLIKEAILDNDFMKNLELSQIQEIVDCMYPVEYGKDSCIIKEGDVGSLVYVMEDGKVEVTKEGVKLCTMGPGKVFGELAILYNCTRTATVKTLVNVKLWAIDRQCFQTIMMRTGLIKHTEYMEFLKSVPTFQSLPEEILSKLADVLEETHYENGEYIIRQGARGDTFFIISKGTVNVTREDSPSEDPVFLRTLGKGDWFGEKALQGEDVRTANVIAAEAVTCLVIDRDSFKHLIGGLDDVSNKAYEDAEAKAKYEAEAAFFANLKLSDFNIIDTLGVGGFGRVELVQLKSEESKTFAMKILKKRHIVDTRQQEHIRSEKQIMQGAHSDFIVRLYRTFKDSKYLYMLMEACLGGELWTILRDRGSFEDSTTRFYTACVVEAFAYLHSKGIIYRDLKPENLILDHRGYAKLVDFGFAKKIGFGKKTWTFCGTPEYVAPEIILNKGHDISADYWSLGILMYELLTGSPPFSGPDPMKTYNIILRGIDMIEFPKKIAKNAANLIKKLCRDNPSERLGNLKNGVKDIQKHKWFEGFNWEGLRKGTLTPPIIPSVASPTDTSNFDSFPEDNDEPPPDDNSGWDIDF

[10] = target: STE20-like serine/threonine-protein kinase (Homo sapiens) (UniProt Q9H2G2); experiment: Inhibition of SLK (unknown origin) assessed as residual activity at 1000 nM by KINOMEscan analysis relative to control

Sequence of Mast/stem cell growth factor receptor Kit (Homo sapiens), P10721 [D816V] (P10721 whole entry D816V): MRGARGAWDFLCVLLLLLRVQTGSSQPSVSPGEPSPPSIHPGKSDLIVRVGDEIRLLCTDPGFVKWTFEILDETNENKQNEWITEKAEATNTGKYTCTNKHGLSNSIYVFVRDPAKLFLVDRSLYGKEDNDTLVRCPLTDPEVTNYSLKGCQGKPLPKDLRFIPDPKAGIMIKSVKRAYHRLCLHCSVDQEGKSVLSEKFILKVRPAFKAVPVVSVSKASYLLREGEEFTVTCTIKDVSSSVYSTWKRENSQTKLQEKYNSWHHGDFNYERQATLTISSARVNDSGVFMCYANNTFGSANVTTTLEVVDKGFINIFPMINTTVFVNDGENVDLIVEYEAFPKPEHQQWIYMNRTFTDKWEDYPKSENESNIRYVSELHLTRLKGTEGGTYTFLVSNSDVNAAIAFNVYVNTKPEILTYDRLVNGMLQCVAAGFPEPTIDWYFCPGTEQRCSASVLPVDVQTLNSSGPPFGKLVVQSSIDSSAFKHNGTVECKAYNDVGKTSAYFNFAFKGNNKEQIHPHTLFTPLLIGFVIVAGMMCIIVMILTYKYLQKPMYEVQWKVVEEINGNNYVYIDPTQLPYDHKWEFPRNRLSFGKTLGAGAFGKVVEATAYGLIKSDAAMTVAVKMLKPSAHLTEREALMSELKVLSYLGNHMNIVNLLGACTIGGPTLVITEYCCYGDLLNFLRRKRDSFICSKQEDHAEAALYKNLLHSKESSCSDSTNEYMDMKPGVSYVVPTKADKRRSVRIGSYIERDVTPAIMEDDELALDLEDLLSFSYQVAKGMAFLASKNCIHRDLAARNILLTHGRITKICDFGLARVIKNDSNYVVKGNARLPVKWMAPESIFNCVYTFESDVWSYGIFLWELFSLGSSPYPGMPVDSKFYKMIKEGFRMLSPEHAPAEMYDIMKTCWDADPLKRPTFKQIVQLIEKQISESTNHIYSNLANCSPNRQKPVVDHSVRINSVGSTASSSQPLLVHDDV

SMILES	Activity [1] [%]	Activity [2] [%]	Activity [3] [%]	Activity [4] [%]	Activity [5] [%]	Activity [6] [%]	Activity [7] [%]	Activity [8] [%]	Activity [9] [%]	Activity [10] [%]
COc1cc2nc(C)nc(N[C@H](C)c3cccc(-c4cn[nH]c4)c3)c2cc1OC	55	100	75	91	94	100	100	100	70	61
COc1cc2ncnc(N[C@H](C)c3cccc4ccccc34)c2cc1OC	96	99	71	95	100	100	100	88	100	84

From ChEMBL document CHEMBL5678818, “Discovery of potent SOS1 inhibitors that block RAS activation via disruption of the RAS-SOS1 interaction” (Proc Natl Acad Sci U S A, 2019)
